Assay results reported in US20250340552A1, “COMPOUNDS, COMPOSITIONS AND METHODS OF TREATING DISORDERS” (HOTSPOT THERAPEUTICS, INC., priority 2022, published 2025).
Read-outs that look alike come from different tables or passages of the source.

Target: T1, Cbl-B (Homo sapiens, UniProt Q13191)
T1 construct: MSD-Based Assay for Degradation of Cbl-B in THP-1 Cells; endogenous in cells; host or cells: THP-1 (title) / Jurkat (protocol text)
Assay: MSD-based assay for degradation of Cbl-B in THP-1 cells
Format: cell-based
Summary of the method: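 THP-1 cells were treated with compound for 24 h at 37 °C. Cbl-B in lysates was quantified by MSD sandwich immunoassay, with anti-Cbl-B capture antibody at 1 ug/mL and SULFO-TAG anti-rabbit detection. Maximal degradation (Dmax) was binned as A >70%, B 50–70%, C 30–50%, D <30%.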

[1] = Cbl-B degradation, Jurkat cells seeded (heading: THP-1 cells), 24 hours incubation, MSD readout
[2] = Cbl-B degradation, Jurkat cells seeded (heading: THP-1 cells), 24 hours incubation, MSD readout, read-out: Dmax

T1 sequence (Q13191 whole entry): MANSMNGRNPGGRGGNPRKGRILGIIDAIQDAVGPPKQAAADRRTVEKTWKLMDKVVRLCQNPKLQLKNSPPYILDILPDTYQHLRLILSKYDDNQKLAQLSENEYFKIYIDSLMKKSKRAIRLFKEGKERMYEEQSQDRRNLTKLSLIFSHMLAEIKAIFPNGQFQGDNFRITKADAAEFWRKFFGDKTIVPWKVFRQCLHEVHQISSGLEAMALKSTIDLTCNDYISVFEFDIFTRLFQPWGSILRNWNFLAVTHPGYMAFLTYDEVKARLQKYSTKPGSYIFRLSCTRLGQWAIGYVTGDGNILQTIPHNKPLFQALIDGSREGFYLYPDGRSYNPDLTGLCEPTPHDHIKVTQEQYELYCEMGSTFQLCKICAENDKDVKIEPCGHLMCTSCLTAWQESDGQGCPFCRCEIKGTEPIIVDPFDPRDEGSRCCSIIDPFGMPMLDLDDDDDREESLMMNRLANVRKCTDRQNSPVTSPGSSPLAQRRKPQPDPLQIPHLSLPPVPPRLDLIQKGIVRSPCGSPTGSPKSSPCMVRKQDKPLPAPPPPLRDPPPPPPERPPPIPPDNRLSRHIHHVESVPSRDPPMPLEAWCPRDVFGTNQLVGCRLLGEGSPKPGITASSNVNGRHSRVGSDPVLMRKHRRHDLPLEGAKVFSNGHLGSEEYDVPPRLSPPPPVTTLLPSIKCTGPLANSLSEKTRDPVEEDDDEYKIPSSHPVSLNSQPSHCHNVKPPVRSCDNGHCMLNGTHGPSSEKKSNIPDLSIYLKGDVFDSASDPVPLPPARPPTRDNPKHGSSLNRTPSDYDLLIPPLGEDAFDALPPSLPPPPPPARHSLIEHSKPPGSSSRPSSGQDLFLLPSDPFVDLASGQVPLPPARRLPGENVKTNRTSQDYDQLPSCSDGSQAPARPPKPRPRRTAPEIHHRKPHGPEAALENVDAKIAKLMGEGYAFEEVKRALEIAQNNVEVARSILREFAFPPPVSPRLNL

Structure (SMILES)	DC50 [1] [nM]	Dmax [2] [%]	Dmax (THP-1) [%]
Cn1cnnc1[C@@H](c1cccc(-n2cc3c(C(F)(F)F)cc(CN4CCC(OCCN5CCC(CN6CCN(c7ccc8c(c7)CN([C@@H]7CCC(=O)NC7=O)C8=O)CC6)CC5)CC4)cn3c2=O)c1)C1CCC1 (single isomer, unassigned) [Compound 48]	300 to 1000	30 to 50	–
Cn1cnnc1[C@@H](c1cccc(-n2cc3c(C(F)(F)F)cc(CN4CCC(OCCOCc5ccc(CC6CCN(c7ccc8c(c7)CN([C@@H]7CCC(=O)NC7=O)C8=O)CC6)cc5)CC4)cn3c2=O)c1)C1CCC1 (single isomer, unassigned) [Compound 173]	1000 to 10000	–	30 to 50
Cn1cnnc1[C@@H](c1cccc(-n2cc3c(C(F)(F)F)cc(-c4nccn4CCOCCN4CCC(CN5CCN(c6ccc7c(c6)CN([C@@H]6CCC(=O)NC6=O)C7=O)CC5)CC4)cn3c2=O)c1)C1CCC1 [Compound 97]	1000 to 10000	30 to 50	–
Cn1cnnc1[C@@H](c1cccc(-n2cc3c(C(F)(F)F)cc(CN4CCN(CCN5CCC(CN6CCN(c7ccc8c(c7)CN([C@H]7CCC(=O)NC7=O)C8=O)CC6)CC5)CC4)cn3c2=O)c1)C1CCC1 (single isomer, unassigned) [Compound 64]	< 30	> 70	–
CN(CCC1CCN(Cc2cc(C(F)(F)F)c3cn(-c4cccc([C@H](c5nncn5C)C5CCC5)c4)c(=O)n3c2)CC1)C(=O)c1ccc(N2CCN(c3ccc4c(c3)CN([C@@H]3CCC(=O)NC3=O)C4=O)CC2)cc1 (single isomer, unassigned) [Compound 185]	30 to 300	50 to 70	–
Cn1cnnc1[C@@H](c1cccc(-n2cc3c(C(F)(F)F)cc(CN4CCN(C(=O)Cc5ccc(C6CCN(c7ccc8c(c7)CN([C@H]7CCC(=O)NC7=O)C8=O)CC6)cc5)CC4)cn3c2=O)c1)C1CCC1 (single isomer, unassigned) [Compound 202]	< 30	> 70	–
Cn1cnnc1[C@@H](c1cccc(-n2cc3c(C(F)(F)F)cc(CN4CCC(OC(=O)N5CCC(CN6CCN(c7ccc8c(c7)CN([C@H]7CCC(=O)NC7=O)C8=O)CC6)CC5)CC4)cn3c2=O)c1)C1CCC1 [Compound 238]	< 30	–	> 70
Cn1cnnc1CC1(c2cccc(-n3cc4c(C(F)(F)F)cc(CN5CCC(COCc6ccc(CN7CCN(c8ccc9c(c8)CN([C@H]8CCC(=O)NC8=O)C9=O)CC7)cc6)CC5)cn4c3=O)c2)COC1 [Compound 216]	< 30	> 70	–
Cn1cnnc1[C@@H](c1cccc(-n2cc3c(C(F)(F)F)cc(CN4CCN(c5ccc(C(=O)N6CCC(C7CCN(c8ccc9c(c8)CN([C@@H]8CCC(=O)NC8=O)C9=O)CC7)CC6)cc5)CC4)cn3c2=O)c1)C1CCC1 (single isomer, unassigned) [Compound 209]	1000 to 10000	< 30	–
Cn1cnnc1[C@@H](c1cccc(-n2cc3c(C(F)(F)F)cc(CN4CCC(OCc5cccc(CN6CCN(c7ccc8c(c7)CN([C@@H]7CCC(=O)NC7=O)C8=O)CC6)c5)CC4)cn3c2=O)c1)C1CCC1 (single isomer, unassigned) [Compound 207]	> 10000	< 30	–
CN(C(=O)c1ccc(CN2CCN(c3ccc4c(c3)CN([C@@H]3CCC(=O)NC3=O)C4=O)CC2)cc1)C1CCN(Cc2cc(C(F)(F)F)c3cn(-c4cccc(C5(Cc6nncn6C)COC5)c4)c(=O)n3c2)CC1 (single isomer, unassigned) [Compound 245]	300 to 1000	30 to 50	–
Cn1cnnc1[C@@H](c1cccc(-n2cc3c(C(F)(F)F)cc(CN4CCC(OCc5ccc(N6CCN(c7ccc8c(c7)CN([C@@H]7CCC(=O)NC7=O)C8=O)CC6)cc5)CC4)cn3c2=O)c1)C1CCC1 (single isomer, unassigned) [Compound 155]	> 10000	< 30	–
CN(CCN(C)C(=O)c1cc(C(F)(F)F)c2cn(-c3cccc([C@H](c4nncn4C)C4CCC4)c3)c(=O)n2c1)C(=O)c1ccc(C2CCN(c3ccc4c(c3)CN([C@@H]3CCC(=O)NC3=O)C4=O)CC2)cc1 (single isomer, unassigned) [Compound 197]	> 10000	< 30	–
Cn1cnnc1[C@@H](c1cccc(-n2cc3c(C(F)(F)F)cc(CN4CCC[C@@H](OCCc5ccc(CN6CCN(c7ccc8c(c7)CN([C@@H]7CCC(=O)NC7=O)C8=O)CC6)cc5)C4)cn3c2=O)c1)C1CCC1 (single isomer, unassigned) [Compound 143]	300 to 1000	30 to 50	–
Cn1cnnc1[C@@H](c1cccc(-n2cc3c(C(F)(F)F)cc(CN4CCC(CN5CCC(CN6CCN(c7cc8c(cc7F)C(=O)N(C7CCC(=O)NC7=O)C8=O)CC6)CC5)CC4)cn3c2=O)c1)C1CCC1 (stereo partly drawn) [Compound 29]	> 10000	< 30	–
Cn1cnnc1[C@@H](c1cccc(-n2cc3c(C(F)(F)F)cc(CN4CCC[C@H](OCc5ccc(CC6CCN(c7ccc8c(c7)CN([C@H]7CCC(=O)NC7=O)C8=O)CC6)cc5)C4)cn3c2=O)c1)C1CCC1 (single isomer, unassigned) [Compound 188]	300 to 1000	–	–

Structure (SMILES)	DC50 [1] [nM]	Dmax [2] [%]	Dmax (THP-1) [%]
Cn1cnnc1[C@@H](c1cccc(-n2cc3c(C(F)(F)F)cc(CN4CCN(C(=O)CN5CCC(CN6CCN(c7ccc8c(c7)CN([C@H]7CCC(=O)NC7=O)C8=O)CC6)CC5)CC4)cn3c2=O)c1)C1CCC1 (single isomer, unassigned) [Compound 130]	30 to 300	50 to 70	–
Cn1cnnc1[C@@H](c1cccc(-n2cc3c(C(F)(F)F)cc(CN4CCC(C(=O)N5CCC(CN6CCN(c7ccc8c(c7)CN(C7CCC(=O)NC7=O)C8=O)CC6)CC5)CC4)cn3c2=O)c1)C1CCC1 (stereo partly drawn) [Compound 44]	> 10000	30 to 50	–
Cn1cnnc1[C@@H](c1cccc(-n2cc3c(C(F)(F)F)cc(COCCCN4CCC(CN5CCN(c6ccc7c(c6)CN([C@H]6CCC(=O)NC6=O)C7=O)CC5)CC4)cn3c2=O)c1)C1CCC1 [Compound 150]	> 10000	< 30	–
Cn1cnnc1[C@@H](c1cccc(-n2cc3c(C(F)(F)F)cc(CN4CCC(OCc5cccc(C(=O)N6CCN(c7ccc8c(c7)CN([C@@H]7CCC(=O)NC7=O)C8=O)CC6)c5)CC4)cn3c2=O)c1)C1CCC1 (single isomer, unassigned) [Compound 153]	> 10000	< 30	–
Cn1cnnc1[C@@H](c1cccc(-n2cc3c(C(F)(F)F)cc(CN4CC(OCCN5CCC(CN6CCN(c7ccc8c(c7)CN(C7CCC(=O)NC7=O)C8=O)CC6)CC5)C4)cn3c2=O)c1)C1CCC1 (stereo partly drawn) [Compound 114]	> 10000	< 30	–
Cn1cnnc1CC1(c2cccc(-n3cc4c(C(F)(F)F)cc(CN5CCC(OCCOCc6ccc(CN7CCN(c8cccc9c8C(=O)N(C8CCC(=O)NC8=O)C9=O)CC7)cc6)CC5)cn4c3=O)c2)COC1 (stereo not drawn) [Compound 19]	> 10000	< 30	–
Cn1cnnc1CC1(c2cccc(-n3cc4c(C(F)(F)F)cc(CN5CCC(OCc6ccc(C(=O)N7CCN(c8ccc9c(c8)CN([C@H]8CCC(=O)NC8=O)C9=O)CC7)cc6)CC5)cn4c3=O)c2)COC1 (single isomer, unassigned) [Compound 244]	< 30	> 70	–
Cn1cnnc1[C@@H](c1cccc(-n2cc3c(C(F)(F)F)cc(CN4CCC(CCN5CCC(CC6CCN(c7ccc8c(c7)CN([C@@H]7CCC(=O)NC7=O)C8=O)CC6)CC5)CC4)cn3c2=O)c1)C1CCC1 [Compound 163]	> 10000	< 30	–
CN(CCCN1CCN(Cc2cc(C(F)(F)F)c3cn(-c4cccc([C@H](c5nncn5C)C5CCC5)c4)c(=O)n3c2)CC1)C(=O)c1ccc(N2CCN(c3ccc4c(c3)CN([C@H]3CCC(=O)NC3=O)C4=O)CC2)cc1 (single isomer, unassigned) [Compound 124]	< 30	> 70	–
Cn1cnnc1[C@@H](c1cccc(-n2cc3c(C(F)(F)F)cc(CN4CCC(OCCOCc5ccc(CNc6cccc7c6C(=O)N(C6CCC(=O)NC6=O)C7=O)cc5)CC4)cn3c2=O)c1)C1CCC1 (stereo partly drawn) [Compound 14]	1000 to 10000	30 to 50	–
Cn1cnnc1[C@@H](c1cccc(N2Cc3c(cc(CN4CCC[C@@H](OCc5ccc(CC6CCN(c7ccc8c(c7)CN([C@@H]7CCC(=O)NC7=O)C8=O)CC6)cc5)C4)cc3C(F)(F)F)C2=O)c1)C1CCC1 (single isomer, unassigned) [Compound 193]	> 10000	< 30	–
Cn1cnnc1[C@@H](c1cccc(-n2cc3c(C(F)(F)F)cc(CN4CCC(O[C@@H]5CCCN(C(=O)c6ccc(N7CCN(c8ccc9c(c8)CN([C@@H]8CCC(=O)NC8=O)C9=O)CC7)cc6)C5)CC4)cn3c2=O)c1)C1CCC1 (single isomer, unassigned) [Compound 225]	1000 to 10000	30 to 50	–
Cn1cnnc1CC1(c2cccc(-n3cc4c(C(F)(F)F)cc(CN5CCC[C@@H](OC6CCN(C(=O)c7ccc(N8CCN(c9ccc%10c(c9)CN([C@H]9CCC(=O)NC9=O)C%10=O)CC8)cc7)CC6)C5)cn4c3=O)c2)COC1 (single isomer, unassigned) [Compound 264]	< 30	> 70	–
Cn1cnnc1[C@@H](c1cccc(-n2cc3c(C(F)(F)F)cc(CN4CCC(OCc5ccc(C6CCN(c7ccc8c(c7)CN([C@@H]7CCC(=O)NC7=O)C8=O)CC6)cc5)CC4)cn3c2=O)c1)C1CCC1 (single isomer, unassigned) [Compound 213]	> 10000	< 30	–
Cn1cnnc1CC1(c2cccc(-n3cc4c(C(F)(F)F)cc(CN5CCC(OCCN6CCC(CN7CCCN(c8ccc9c(c8)CN(C8CCC(=O)NC8=O)C9=O)CC7)CC6)CC5)cn4c3=O)c2)COC1 (stereo not drawn) [Compound 25]	300 to 1000	30 to 50	–
Cn1cnnc1[C@@H](c1cccc(-n2cc3c(C(F)(F)F)cc(CN4CCN(C(=O)Cc5ccc(C6CCN(c7ccc8c(c7)CN([C@@H]7CCC(=O)NC7=O)C8=O)CC6)cc5)CC4)cn3c2=O)c1)C1CCC1 (single isomer, unassigned) [Compound 201]	30 to 300	30 to 50	–
